Assay results reported in patent US20110045101A1, “FUNGICIDAL SUBSTITUTED AZOLES” (E.I. Du Pont De Nemours and Company, priority 2009, published 2011).
Marks after values point to notes of the source that are not given here.

What was measured:
Type in all cases: in vivo
Details in all cases: 100 = 100% disease control
Botrytis cinerea = assay: Test C: tomato Botrytis on tomato seedlings, sprayed the day before inoculation, visual disease rating
Outline: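 Rate: 200 ppm sprayed to run-off, corresponding to 500 g/ha; flagged values used 40 ppm. Vehicle was aqueous acetone (1:1) plus 250 ppm surfactant, compounds predissolved in acetone at 3% of volume. Plants were tomato seedlings.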

Alternaria solani = assay: Test D: tomato early blight, sprayed the day before inoculation, visual disease rating
Outline: (§1)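 Plants received a run-off spray at 200 ppm (equivalent to 500 g/ha) or, for starred values, 40 ppm. Formulation used acetone at 3% of volume in a 50/50 acetone/water mix carrying 250 ppm Trem® 014.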

Septoria nodorum = assay: Test F: wheat glume blotch on wheat seedlings, sprayed the day before inoculation, visual disease rating
Outline: as §1

Septoria tritici = assay: Test G: wheat leaf blotch on wheat seedlings, sprayed the day before inoculation, visual disease rating
Outline: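 Wheat seedlings were sprayed to run-off with test suspension (acetone/water plus surfactant), generally 200 ppm (≈500 g/ha), or 40 ppm where marked. Septoria tritici spores were inoculated the next day; plants were held 48 h at 24°C in saturated atmosphere, then 19 days at 20°C before visual disease rating.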

[1] = system: Puccinia recondita f. sp. tritici; assay: Test I: wheat leaf rust on wheat seedlings, sprayed the day before inoculation, visual disease rating
Outline: as §1

[2] = system: Erysiphe graminis f. sp. tritici; assay: Test J: wheat powdery mildew on wheat seedlings, sprayed the day before inoculation, visual disease rating
Outline: as §1

[3] = 200 ppm, 0 = no control relative to controls
[4] = 40 ppm (marked *), 0 = no control

SMILES | Test C disease control rating (Botrytis cinerea; [3]) [%] | Test D disease control rating (Alternaria solani; [3]) [%] | Test F disease control rating (Septoria nodorum; [3]) [%] | Test G disease control rating (Septoria tritici; [3]) [%] | Test I disease control rating [1, 3] [%] | Test J disease control rating [2, 3] [%] | Test C disease control rating (Botrytis cinerea; 200 ppm, 0 = no control) [%] | Test D disease control rating (Alternaria solani; 200 ppm, 0 = no control) [%] | Test F disease control rating (Septoria nodorum; 200 ppm, 0 = no control) [%] | Test G disease control rating (Septoria tritici; 200 ppm, 0 = no control) [%] | Test I disease control rating ([1]; 200 ppm, 0 = no control) [%] | Test J disease control rating ([2]; 200 ppm, 0 = no control) [%] | other results
COc1cc(F)c(-c2c(Cl)ncn2-c2ccc(C)cc2)c(F)c1 [compound 138] | 98 | 100 | 92 | 99 | 100 | 100 |  |  |  |  |  |  | 
Cc1ccc(-n2cnc(Cl)c2-c2c(F)cc(F)cc2F)cc1 [compound 139] | 99 | 100 | 0 | 75 | 98 | 98 |  |  |  |  |  |  | 
COc1cc(Cl)cc(F)c1-c1c(Cl)nc(Br)n1-c1ccc(Cl)cc1 [compound 140] | 0 | 0 | 0 | 93 | 55 | 39 |  |  |  |  |  |  | 
Cc1ccc(-n2c(Br)nc(Cl)c2-c2c(F)ccc(F)c2F)cc1 [compound 141] | 99 | 100 | 0 | 91 | 99 | 100 |  |  |  |  |  |  | 
COc1cc(F)c(-c2c(Cl)nc(Cl)n2-c2ccc(F)cc2)c(F)c1 [compound 142] | 99 | 100 | 97 | 94 | 100 | 100 |  |  |  |  |  |  | 
Fc1cc(-n2c(Br)nc(Cl)c2-c2c(F)ccc(F)c2F)ccc1Cl [compound 143] | 99 | 100 | 100 | 100 | 100 | 100 |  |  |  |  |  |  | 
COc1cc(F)c(-c2c(Cl)nc(Br)n2-c2ccc(F)cc2)c(F)c1 [compound 144] | 100 | 100 | 100 | 100 | 100 | 100 |  |  |  |  |  |  | 
Cc1nc(Cl)c(-c2c(F)ccc(F)c2F)n1-c1ccc(F)cc1 [compound 145] | 99 | 100 | 100 | 100 | 100 | 100 |  |  |  |  |  |  | 
COc1cc(F)c(-c2c(Cl)nc(Cl)n2-c2ccc(C)cc2)c(F)c1 [compound 146] | 99 | 100 | 100 | 100 | 100 | 100 |  |  |  |  |  |  | 
Fc1ccc(-n2c(Cl)nc(Cl)c2-c2c(F)cc(F)cc2F)cc1 [compound 147] |  |  |  |  |  |  | 91 | 100 | 82 | 100 | 100 | 99 | 
COc1cc(F)c(-c2c(Cl)nc(Br)n2-c2ccc(C)cc2)c(F)c1 [compound 148] |  |  |  |  |  |  | 99 | 100 | 99 | 100 | 100 | 100 | 
COc1cc(Cl)cc(F)c1-c1c(Cl)nc(C)n1-c1ccc(Cl)cc1 [compound 149] |  |  |  |  |  |  | 53 | 0 | 98 | 96 | 95 | 95 | 
Fc1cccc(F)c1-n1c(Cl)nc(Cl)c1-c1ccc(Cl)cc1 [compound 150] |  |  |  |  |  |  | 99 | 100 | 60 | 98 | 97 | 100 | 
Cc1nc(C)n(-c2ccc(Cl)cc2)c1-c1c(F)cccc1F [compound 151] |  |  |  |  |  |  |  |  |  |  |  |  | Test C disease control rating (Botrytis cinerea; [4]): 97* %; Test D disease control rating (Alternaria solani; [4]): 100* %; Test F disease control rating (Septoria nodorum; [4]): 69* %; Test G disease control rating (Septoria tritici; [4]): 99* %; Test I disease control rating [1, 4]: 89* %; Test J disease control rating [2, 4]: 96* %
Fc1ccc(-n2c(Br)nc(Cl)c2-c2c(F)cc(F)cc2F)cc1 [compound 152] |  |  |  |  |  |  | 99 | 99 | 69 | 96 | 89 | 99 | 
Cc1ccc(-n2c(Br)nc(Cl)c2-c2c(F)cc(F)cc2F)cc1 [compound 153] |  |  |  |  |  |  | 98 | 100 | 69 | 96 | 99 | 100 | 
Cc1ccc(-n2c(Cl)nc(Cl)c2-c2c(F)cc(F)cc2F)cc1 [compound 154] |  |  |  |  |  |  | 99 | 100 | 0 | 93 | 86 | 99 | 
Cc1ccc(-n2c(C)nc(Cl)c2-c2c(F)ccc(F)c2F)cc1 [compound 155] |  |  |  |  |  |  | 99 | 100 | 87 | 95 | 99 | 100 | 
CCOc1cc(F)c(-c2c(Cl)nc(C)n2-c2ccc(Cl)cc2)c(F)c1 [compound 156] |  |  |  |  |  |  |  |  |  |  |  |  | Test C disease control rating (Botrytis cinerea; [4]): 98* %; Test D disease control rating (Alternaria solani; [4]): 100* %; Test F disease control rating (Septoria nodorum; [4]): 99* %; Test G disease control rating (Septoria tritici; [4]): 97* %; Test I disease control rating [1, 4]: 97* %; Test J disease control rating [2, 4]: 99* %
Cc1nc(Cl)c(-c2c(F)ccc(F)c2F)n1-c1ccc(Cl)c(F)c1 [compound 157] |  |  |  |  |  |  | 97 | 99 | 98 | 97 | 100 | 100 | 
COc1cc(F)c(-c2c(Cl)nc(C)n2-c2ccc(F)cc2)c(F)c1 [compound 158] |  |  |  |  |  |  | 99 | 100 | 96 | 97 | 100 | 100 | 
COc1cc(F)c(-c2c(Cl)nc(C)n2-c2ccc(C)cc2)c(F)c1 [compound 159] |  |  |  |  |  |  | 99 | 100 | 99 | 97 | 100 | 100 | 
Fc1ccc(-n2cnc(Cl)c2-c2c(F)cccc2F)cc1F [compound 160] |  |  |  |  |  |  | 91 | 93 | 0 | 93 | 28 | 98 | 
Cc1ccc(-n2cnc(Cl)c2-c2c(F)cccc2F)cc1F [compound 161] |  |  |  |  |  |  | 99 | 71 | 0 | 1 | 80 | 100 | 
Fc1cccc(F)c1-n1c(Br)nc(Br)c1-c1ccc(Cl)cc1 [compound 162] |  |  |  |  |  |  |  |  |  |  |  |  | Test C disease control rating (Botrytis cinerea; [4]): 88* %; Test D disease control rating (Alternaria solani; [4]): 97* %; Test F disease control rating (Septoria nodorum; [4]): 0* %; Test G disease control rating (Septoria tritici; [4]): 93* %; Test I disease control rating [1, 4]: 23* %; Test J disease control rating [2, 4]: 94* %
Fc1cccc(F)c1-n1cnc(Cl)c1-c1ccc(Cl)cc1 [compound 163] |  |  |  |  |  |  |  |  |  |  |  |  | Test C disease control rating (Botrytis cinerea; [4]): 0* %; Test D disease control rating (Alternaria solani; [4]): 0* %; Test F disease control rating (Septoria nodorum; [4]): 0* %; Test G disease control rating (Septoria tritici; [4]): 10* %; Test I disease control rating [1, 4]: 0* %; Test J disease control rating [2, 4]: 0* %
Fc1cccc(F)c1-n1c(Br)nc(Cl)c1-c1ccc(Cl)cc1 [compound 164] |  |  |  |  |  |  |  |  |  |  |  |  | Test C disease control rating (Botrytis cinerea; [4]): 91* %; Test D disease control rating (Alternaria solani; [4]): 88* %; Test F disease control rating (Septoria nodorum; [4]): 0* %; Test G disease control rating (Septoria tritici; [4]): 96* %; Test I disease control rating [1, 4]: 19* %; Test J disease control rating [2, 4]: 94* %
CCn1nc(Br)c(-c2c(F)cccc2F)c1-c1ccc(Cl)cc1 [compound 165] |  |  |  |  |  |  | 0 | 0 | 0 | 93 | 27 | 93 | 
Cn1nc(Br)c(-c2c(F)cc(F)cc2F)c1-c1ccc(Cl)cc1 [compound 166] |  |  |  |  |  |  | 96 | 97 | 40 | 96 | 91 | 100 | 
